Consider one molecule from patent US20190046490A1, “METHODS OF TREATING LACTOSE INTOLERANCE” (Nogra Pharma Limited, priority 2016, published 2019).

Experiment [1] addresses T1, PPARγ bound to DR2 PPRE of the LCT gene promoter (Homo sapiens, UniProt P37231).
T1 construct: Chromatin immunoprecipitation (ChIP) experiments in Caco-2 cells (5×10^6 cells) stimulated for 24 hours with 1 mM GED; endogenous in cells; host or cells: Caco-2 (colonic adenocarcinoma) cells
T1 sequence (P37231 1-505): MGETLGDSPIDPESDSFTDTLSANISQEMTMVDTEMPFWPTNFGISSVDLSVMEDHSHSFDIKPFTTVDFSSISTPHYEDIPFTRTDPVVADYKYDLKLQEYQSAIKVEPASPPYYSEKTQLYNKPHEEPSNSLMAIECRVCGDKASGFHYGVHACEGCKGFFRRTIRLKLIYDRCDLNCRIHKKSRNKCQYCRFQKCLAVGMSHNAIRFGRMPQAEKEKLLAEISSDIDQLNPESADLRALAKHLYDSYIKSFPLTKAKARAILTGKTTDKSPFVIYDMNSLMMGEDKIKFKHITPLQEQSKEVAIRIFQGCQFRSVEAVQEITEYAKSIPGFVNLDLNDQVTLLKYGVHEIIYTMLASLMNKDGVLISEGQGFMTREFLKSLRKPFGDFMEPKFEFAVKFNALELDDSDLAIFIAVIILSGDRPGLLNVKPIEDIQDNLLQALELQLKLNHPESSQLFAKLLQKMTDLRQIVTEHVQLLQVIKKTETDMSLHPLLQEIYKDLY
T1 sequence (P19793 1-462 partner): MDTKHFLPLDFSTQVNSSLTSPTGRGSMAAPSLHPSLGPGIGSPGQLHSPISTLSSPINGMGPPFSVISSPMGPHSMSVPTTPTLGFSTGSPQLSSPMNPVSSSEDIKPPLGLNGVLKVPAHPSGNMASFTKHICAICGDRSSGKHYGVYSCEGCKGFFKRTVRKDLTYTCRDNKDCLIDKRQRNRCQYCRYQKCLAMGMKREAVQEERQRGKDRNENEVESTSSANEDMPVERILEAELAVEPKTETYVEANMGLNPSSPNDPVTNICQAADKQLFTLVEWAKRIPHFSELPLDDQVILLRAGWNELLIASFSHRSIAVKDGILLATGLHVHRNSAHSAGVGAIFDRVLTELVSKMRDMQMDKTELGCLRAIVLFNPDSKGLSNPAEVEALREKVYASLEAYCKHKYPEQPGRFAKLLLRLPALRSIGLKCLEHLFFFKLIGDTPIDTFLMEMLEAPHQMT
Description: Chromatin immunoprecipitation of PPARγ on the LCT gene promoter in Caco-2 cells. In kind it is cell-based. The note with it: 1 mM, 24 hours. On the procedure: The physical binding of PPARγ onto the LCT gene promoter was studied by Chromatin immunoprecipitation (ChIP) experiments in Caco-2 cells (5×10^6 cells) stimulated for 24 hours with 1 mM GED in 100 mm cell culture petri dishes. Caco-2 cells were synchronized by the addition of serum-free medium for 16 hours and then stimulated for 24 hours using the protocol described previously. Cells were then rinsed with PBS and the protein-DNA complexes were fixed by adding 1% PFA for 30 minutes at room temperature. This binding was stopped by the addition of glycine (0.125M). Cells were collected by scraping in the presence of cold PBS and protease inhibitors (Sigma). The cell pellet obtained by centrifugation was taken up in 300 μl SDS buffer (1% SDS, 10 mM EDTA, 50 mM Tris-HCl pH 8, protease inhibitors) and sonicated (Diagenode, BioruptorUCD200TM-EX) for 30 seconds, followed by 30 seconds resting time. For each immunoprecipitation, 125 μL of crosslinked sonicated sample was diluted with 225 μl of IP buffer (1% triton X-100, 150 mM NaCl, 2 mM EDTA, 20 mM Tris-HCl pH 8.1 and protease inhibitors) and pre-cleared for four hours by adding 40 μL of protein A/G beads (50% slurry protein A/G Sepharose, Clinisciences) and 5 μg of salmon sperm DNA (Invitrogen). […] DNA was then purified using the PCR Clean-up kit (Macherey-Nagel) and analyzed by PCR.

The subject of experiment [2] is weaned rats fed with a lactose-enriched diet. Nature of the experiment: Symptoms associated with lactose intolerance in weaned rats fed a lactose-enriched diet. The note with it: rats on lactose-enriched diet. Type of experiment: in vivo. On the procedure: Animal experiments were performed in the accredited Pasteur Institute animal care facility (Institut Pasteur de Lille, France; n° B59-35009) according to governmental guidelines (n° 2010/63/UE; Décret 2013-118) and animal ethics committee approval. Specific pathogen-free male C57BL/6 mice and Sprague-Dawley rats were obtained from Janvier Labs (France). Mice and rats were housed 5 animals/cage and 3 animals/cage, respectively, in a specific pathogen-free facility, in an air-conditioned room with controlled temperature (22±1° C.), humidity (65-70%), and 12 h light/12 h dark cycles. Animals were fed with standard laboratory chow (except when indicated) and were provided with autoclaved tap water ad libitum. Animals were acclimatized for at least 1 week before entering the study.
In addition, the effect of GED on the symptoms associated with lactose intolerance was evaluated in weaned rats fed with a lactose-enriched diet provided by Ssniff Spezialdiäten GmbH (Soest, Germany). Animals were monitored daily, weighed, and stool consistencies were evaluated.
SCFA were extracted and measured as described in […], which is incorporated herein by reference.

Take `COC(Cc1ccc(N)cc1)C(=O)O` (stereo not drawn) [GED, 3-(4′-aminophenyl)2-methoxypropionic acid]: the “increase of the amount of PPARγ bound to the DR2 PPRE compared to unstimulated cells” value in experiment [1] is 2 fold. In experiment [2] (day 4), the “concentration of short-chain fatty acids (SCFA) in caecal contents” value was “significant decrease”. In addition, the “caecum volume compared to untreated rats” value in experiment [2] (sacrificed at day 4, data not shown) is reported as “significant decrease”.
